Results: patent US20070105826A1, “Novel fusidic acid derivatives” (LEO PHARMA A/S, priority 2003, published 2007)
≈ marks a conversion by molar mass, not a printed value.

Tests used:
Assay in all cases: MIC (Minimum Inhibitory Concentration) determination, broth dilution in 96-well plates
Format in all cases: cell-based
[1] = system: Staphylococcus aureus 8325-4; settings: LB broth, aerobic, 37° C., 24 h, cells at t = 0 ˜10^6/ml
Experimental: (§1) The fusidic acid analogues of the invention and the reference compounds 201 (fusidic acid (as the sodium salt)), 207, 205 203 and 206 (see notes to Table A) were stored in powder form at +4° C. When used in assays, they were dissolved in 95% EtOH (3.84 mg/ml) and kept for a maximum of 1 month at −20° C. before being discarded. [table] LB media (per 1000 ml ddH2O: 10 g Bacto-tryptone, 5 g yeast extract, 10 g NaCl). THB (Todd-Hewitt Broth) media, SIGMA, product number: T1438 (per 1000 ml ddH2O: 50 g Beef-Heart Infusion, 20 g Casein peptone, 2 g Dextrose, 2 g NaHCO3, 2.5 g NaCl, 0.4 g Na2HPO4). Plates were made using an agar concentration of 1.5%. Blood-agar plates contained an additional 5% (v/v) defibrinated horse blood purchased from SLU (Swedish Agricultural University), Uppsala. MIC tests on the compounds were done in 96-well micro titer plates (Thermo Labsystems). 4×10^5 bacteria were inoculated in 0.4 ml growth media (S. aureus, LB broth, S. pyogenes—TH broth) containing serial dilutions of the compound to be tested starting from 128 μg/ml (dilution factor 2, e.g. 128 μg/ml, 64 μg/ml, . . . , 0.016 μg/ml). The criterion for sensitivity is no visible growth after a 24 h, aerobic incubation at 37° C. Each compound was tested at least twice, and fusidic acid was always included as an experimental control. [table]

[2] = system: Streptococcus pyogenes DA7121; settings: TH broth, aerobic, 37° C., 24 h, cells at t = 0 ˜10^6/ml; for MIC: Streptococcus pyogenes, DA7121, read-out: Antibacterial activity, MIC, Strep. pyogenes DA7121
Experimental: as §1

[3] = system: Streptococcus pyogenes DA7864; settings: TH broth, aerobic, 37° C., 24 h, cells at t = 0 ˜10^6/ml; for MIC: Streptococcus pyogenes, DA7864, read-out: Antibacterial activity, MIC, Strep. pyogenes DA7864
Experimental: as §1

[4] = system: Staphylococcus aureus FDA486; settings: LB broth, aerobic, 37° C., 24 h, cells at t = 0 ˜10^6/ml; for MIC: Staphylococcus aureus, FDA486, read-out: Antibacterial activity, MIC, Staph. aureus FDA486
Experimental: as §1

[5] = system: Staphylococcus aureus CJ12; settings: LB broth, aerobic, 37° C., 24 h, cells at t = 0 ˜10^6/ml; for MIC: Staphylococcus aureus, CJ12, read-out: Antibacterial activity, MIC, Staph. aureus CJ12
Experimental: as §1

## 24-bromo-16-deacetoxy-16β-ethoxy-fusidic acid [Compound 116]
[1]
  Antibacterial activity, MIC, Staph. aureus 8325-4: 0.11 µg/mL
[2]
  Antibacterial activity, MIC, Strep. pyogenes DA7121: 7 µg/mL
[3]
  Antibacterial activity, MIC, Strep. pyogenes DA7864: 7 µg/mL
[4]
  Antibacterial activity, MIC, Staph. aureus FDA486: 0.44 µg/mL
[5]
  Antibacterial activity, MIC, Staph. aureus CJ12: 0.06 µg/mL

## 24-bromo-17S,20S-dihydrofusidic acid [Compound 115]
[1]
  Antibacterial activity, MIC, Staph. aureus 8325-4: 0.11 µg/mL
[2]
  Antibacterial activity, MIC, Strep. pyogenes DA7121: 1.8 µg/mL
[3]
  Antibacterial activity, MIC, Strep. pyogenes DA7864: 1.8 µg/mL
[4]
  Antibacterial activity, MIC, Staph. aureus FDA486: 0.88 µg/mL
[5]
  Antibacterial activity, MIC, Staph. aureus CJ12: 0.06 µg/mL

## 24-bromo-17S,20S-methylene-fusidic acid [Compound 122]
[1]
  Antibacterial activity, MIC, Staph. aureus 8325-4: 0.88 µg/mL
[2]
  Antibacterial activity, MIC, Strep. pyogenes DA7121: 7 µg/mL
[3]
  Antibacterial activity, MIC, Strep. pyogenes DA7864: 7 µg/mL
[4]
  Antibacterial activity, MIC, Staph. aureus FDA486: 0.88 µg/mL
[5]
  Antibacterial activity, MIC, Staph. aureus CJ12: 0.22 µg/mL

## CC(=O)O[C@H]1C[C@@]2(C)[C@@H](C[C@@H](O)[C@H]3[C@@]4(C)CC[C@@H](O)[C@@H](C)[C@@H]4CC[C@@]32C)/C1=C(\CCC(Br)=C(C)C)C(=O)O [Compound 108, 24-bromo-fusidic acid]
[2]
  Antibacterial activity, MIC, Strep. pyogenes DA7121: 0.8 µg/mL
[3]
  Antibacterial activity, MIC, Strep. pyogenes DA7864: 0.8 µg/mL
[4]
  Antibacterial activity, MIC, Staph. aureus FDA486: 0.05 µg/mL
[5]
  Antibacterial activity, MIC, Staph. aureus CJ12: 0.03 µg/mL

## CC(C)=C(Br)CC/C(C(=O)O)=C1\C2C[C@@H](O)C3[C@@]4(C)CC[C@@H](O)[C@@H](C)C4CC[C@]3(C)[C@@]2(C)C[C@@H]1[S+]([O-])C(C)C (stereo partly drawn) [Compound 113, 24-bromo-16-deacetoxy-16β-isopropylsulfinyl-fusidic acid]
[2]
  MIC: 0.4 µg/mL (≈ 0.637 µM)
[3]
  MIC: 0.4 µg/mL (≈ 0.637 µM)
[4]
  MIC: 0.22 µg/mL (≈ 0.35 µM)
[5]
  MIC: 0.11 µg/mL (≈ 0.175 µM)

## CC(=O)O[C@H]1C[C@@]2(C)[C@@H](C[C@@H](O)[C@H]3[C@@]4(C)CC[C@@H](O)[C@@H](C)[C@@H]4CC[C@@]32C)/C1=C(\CCC=C(C)C)C(=O)O [Ref. comp. 201, Fusidic acid]
[1]; Staphylococcus aureus, 83254, read-out: Antibacterial activity, MIC, Staph. aureus 8325-4
  MIC: 0.03 µg/mL (≈ 0.0581 µM)
[2]
  MIC: 3.5 µg/mL (≈ 6.77 µM)
[3]
  MIC: 3.5 µg/mL (≈ 6.77 µM)
[4]
  MIC: 0.11 µg/mL (≈ 0.213 µM)
[5]
  MIC: 0.03 µg/mL (≈ 0.0581 µM)

## CCO[C@H]1C[C@@]2(C)[C@@H](C[C@@H](O)[C@H]3[C@@]4(C)CC[C@@H](O)[C@@H](C)[C@@H]4CC[C@@]32C)/C1=C(\CCC=C(C)C)C(=O)O [Ref. comp. 203, 16-Deacetoxy-16β-ethoxy-fusidic acid]
[1]
  Antibacterial activity, MIC, Staph. aureus 8325-4: 0.22 µg/mL
[2]
  Antibacterial activity, MIC, Strep. pyogenes DA7121: 7 µg/mL
[3]
  Antibacterial activity, MIC, Strep. pyogenes DA7864: 14 µg/mL
[4]
  Antibacterial activity, MIC, Staph. aureus FDA486: 0.22 µg/mL
[5]
  Antibacterial activity, MIC, Staph. aureus CJ12: 0.06 µg/mL

## CC(=O)OC1CC2(C)C(CC(O)C3C4(C)CCC(O)C(C)C4CCC32C)C1C(CCC=C(C)C)C(=O)O (stereo not drawn) [Ref. comp. 205, 17S,20S-Dihydrofusidic acid]
[1]
  Antibacterial activity, MIC, Staph. aureus 8325-4: 0.11 µg/mL
[2]
  Antibacterial activity, MIC, Strep. pyogenes DA7121: 14 µg/mL
[3]
  Antibacterial activity, MIC, Strep. pyogenes DA7864: 28 µg/mL
[4]
  Antibacterial activity, MIC, Staph. aureus FDA486: 0.44 µg/mL
[5]
  Antibacterial activity, MIC, Staph. aureus CJ12: 0.06 µg/mL

## CC(=O)O[C@H]1C[C@@]2(C)[C@@H](C[C@@H](O)[C@H]3[C@@]4(C)CC[C@@H](O)[C@@H](C)[C@@H]4CC[C@@]32C)[C@]12C[C@]2(CCC=C(C)C)C(=O)O [Ref. comp. 206, 17S,20S-Methylene-fusidic acid]
[1]
  Antibacterial activity, MIC, Staph. aureus 8325-4: 0.11 µg/mL
[2]
  Antibacterial activity, MIC, Strep. pyogenes DA7121: >32 µg/mL
[3]
  Antibacterial activity, MIC, Strep. pyogenes DA7864: 28 µg/mL
[4]
  Antibacterial activity, MIC, Staph. aureus FDA486: 0.22 µg/mL
[5]
  Antibacterial activity, MIC, Staph. aureus CJ12: 0.06 µg/mL

## CC(C)=CCC/C(C(=O)O)=C1/[C@@H]([S+]([O-])C(C)C)C[C@@]2(C)[C@H]1C[C@@H](O)[C@H]1[C@@]3(C)CC[C@@H](O)[C@@H](C)[C@@H]3CC[C@@]12C (stereo partly drawn) [Ref. comp. 207, 16-Deacetoxy-16β-isopropylsulfinyl-fusidic acid]
[2]
  Antibacterial activity, MIC, Strep. pyogenes DA7121: 1.6 µg/mL
[3]
  Antibacterial activity, MIC, Strep. pyogenes DA7864: 1.6 µg/mL
[4]
  Antibacterial activity, MIC, Staph. aureus FDA486: 0.22 µg/mL
[5]
  Antibacterial activity, MIC, Staph. aureus CJ12: 0.05 µg/mL
